In publication PMC11449324, “Functional comparison of human and murine equilibrative nucleobase transporter 1” (PLOS ONE, 2024):
Read-outs that look alike come from different tables or passages of the source.

Assays:
mENBT1 = biological target: T1, mENBT1 (Mus musculus, UniProt A2AVZ9); test: Inhibition of ENBT1-mediated substrate uptake in HEK293-mslc43a3 cells; format: cell-based
T1 construct: Oligonucleotides corresponding to the coding region of SLC43A3 (NM_001278201) or slc43a3 (NM_021398); expressed in transfected cells; HEK293-mslc43a3
T1 sequence (A2AVZ9 1-502): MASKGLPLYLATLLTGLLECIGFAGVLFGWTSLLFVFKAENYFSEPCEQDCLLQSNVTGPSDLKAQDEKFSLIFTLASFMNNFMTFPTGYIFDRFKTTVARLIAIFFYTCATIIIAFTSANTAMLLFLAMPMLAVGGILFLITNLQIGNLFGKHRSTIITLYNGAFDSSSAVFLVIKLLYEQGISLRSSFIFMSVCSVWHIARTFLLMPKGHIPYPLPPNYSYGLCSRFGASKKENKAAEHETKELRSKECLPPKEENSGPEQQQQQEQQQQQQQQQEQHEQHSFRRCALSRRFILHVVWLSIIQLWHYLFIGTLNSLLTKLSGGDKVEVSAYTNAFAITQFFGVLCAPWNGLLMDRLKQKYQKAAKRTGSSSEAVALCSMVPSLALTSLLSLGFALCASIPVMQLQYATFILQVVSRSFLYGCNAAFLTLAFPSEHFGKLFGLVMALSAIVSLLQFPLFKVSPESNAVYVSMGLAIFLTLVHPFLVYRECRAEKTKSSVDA
Description: (§1) Harvested cells were suspended in nominally sodium-free N-methyl-D-glucamine (NMG) buffer (140 mM NMG, 5 mM KCl, 4.2 mM KHCO3, 0.36 mM K2HPO4, 0.44 mM KH2PO4, 0.5 mM MgCl2, 1.3 mM CaCl2, 10 mM HEPES, pH 7.4), to minimize potential contribution of sodium-dependent concentrative nucleoside transporter-mediated uptake. Additionally, cells were incubated for 15 minutes at room temperature with 10 μM dipyridamole (DY), an equilibrative nucleoside transporter (ENT) inhibitor, to block equilibrative nucleoside transporter–mediated uptake. The substrate uptake assay was initiated by adding 250 μL cell suspension to 250 μL [^3H] labeled substrate, layered over 21:4 silicone:mineral oil (200 μL) in 1.5 mL microcentrifuge tubes (conducted at room temperature). The uptake reaction was terminated after 2 seconds by centrifugation of the cells through the oil layer at ~10,000 g. This is the minimum incubation time achievable with this oil-stop technique, and it was found in previous studies that these short incubation times were necessary to assess the kinetics of this transporter. The aqueous layer was removed via vacuum-powered aspirator, and the tube was washed with 1 mL of NMG buffer prior to removal of the oil layer. The resulting cell pellet was digested in 250 μL 1 M NaOH overnight (~16 hours), with 220 μL aliquots of digested cells assessed for radioactive content using standard liquid scintillation counting techniques in a Beckman Coulter LS6500 scintillation system (Brea, CA).
(§2) To assess the ability of compounds to inhibit substrate uptake, cells were incubated with the inhibitor for 15 minutes prior to initiating the uptake assay, or exposed to the cells simultaneously with the radiolabelled substrate. […] After subtraction of the non-mediated uptake component, the degree of inhibition was calculated as the ratio of cellular accumulation in the presence of test compound to that measured in its absence (X 100).
(§3) Each assay was repeated 5–6 times using independent cell isolations and reagent preparations. In addition, within each assay, there were two or three technical replicates (using the same reagents and cells) that were averaged to obtain a single data point. Nonlinear curves were fitted to data (presented as mean ± SD from the 5–6 independent experiments), and statistical analyses were done using GraphPad Prism 10 software. In all cases, if the P-value determined from a statistical test was less than 0.05, the null hypothesis was rejected and the alternative hypothesis was favoured. Significant differences between groups were assessed using either Student’s t-test or ordinary one- or two-way analysis of variance (ANOVA) followed by a post hoc Šidák multiple comparison test, as appropriate. For influx and cell viability analyses, significant differences in Km and EC50 value, respectively, between the hENBT1 and mENBT1 data sets, were determined by the extra sum-of-squares F test. For inhibition analyses, the Ki values were determined from the IC50 values using the specified substrate concentration [S], based on the Cheng-Prusoff equation Ki = IC50/(1 + [S]/Km) and experimentally obtained Km values.

hENBT1 = biological target: T2, hENBT1 (Homo sapiens, UniProt Q8NBI5); test: Inhibition of ENBT1-mediated substrate uptake in HEK293-hSLC43A3 cells; format: cell-based
T2 construct: Oligonucleotides corresponding to the coding region of SLC43A3 (NM_001278201) or slc43a3 (NM_021398); expressed in transfected cells; HEK293-hSLC43A3
T2 sequence (Q8NBI5 1-491): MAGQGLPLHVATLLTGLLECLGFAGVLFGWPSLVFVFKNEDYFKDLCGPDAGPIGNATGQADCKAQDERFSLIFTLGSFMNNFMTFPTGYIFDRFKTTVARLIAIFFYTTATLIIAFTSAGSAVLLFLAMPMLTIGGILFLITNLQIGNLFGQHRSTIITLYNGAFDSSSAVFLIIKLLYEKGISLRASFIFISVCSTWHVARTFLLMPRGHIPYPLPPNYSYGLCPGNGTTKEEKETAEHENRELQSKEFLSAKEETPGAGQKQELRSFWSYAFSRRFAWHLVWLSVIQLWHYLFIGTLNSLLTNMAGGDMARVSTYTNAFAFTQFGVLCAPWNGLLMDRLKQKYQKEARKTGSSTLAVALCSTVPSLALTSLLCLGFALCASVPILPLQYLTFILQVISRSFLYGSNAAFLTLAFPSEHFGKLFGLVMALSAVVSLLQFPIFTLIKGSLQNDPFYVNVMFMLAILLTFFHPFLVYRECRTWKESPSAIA
Description: as §1, §2, §3

Ki (mENBT1) [µM]	inhibition of ENBT1-mediated [14C]6-MP uptake (mENBT1; at 1 mM adenine, HEK293-mslc43a3)	Ki (hENBT1) [µM]	inhibition of ENBT1-mediated [14C]6-MP uptake (hENBT1; at 1 mM adenine, HEK293-hSLC43A3)	Ki (mENBT1; HEK293-mslc43a3, 30 μM [3H]adenine, 2 seconds, Cheng-Prusoff, read-out: Ki for inhibition of ENBT1-mediated [3H]adenine uptake) [µM]	inhibition of ENBT1-mediated [3H]adenine uptake (mENBT1; at highest concentration of 6-MP tested (1 mM), HEK293-mslc43a3)	Ki relative to its Km for the transporter (mENBT1; mENBT1) [fold]	Ki (hENBT1; HEK293-hSLC43A3, 30 μM [3H]adenine, 2 seconds, Cheng-Prusoff, read-out: Ki for inhibition of ENBT1-mediated [3H]adenine uptake) [µM]	inhibition of ENBT1-mediated [3H]adenine uptake (hENBT1; at highest concentration of 6-MP tested (1 mM), HEK293-hSLC43A3)	Ki relative to its Km for the transporter (hENBT1; hENBT1) [fold]	Compound
51 ± 13	near complete inhibition	25 ± 9	near complete inhibition							Nc1ncnc2[nH]cnc12 [adenine, Adenine]
				7400 ± 1300	complete inhibition was not obtained	30	5900 ± 700	complete inhibition was not obtained	30	Sc1ncnc2nc[nH]c12 [6-MP, 6-Mercaptopurine]
